From patent US20180200257A1, “METHODS FOR THE TREATMENT OF INFLAMMATORY DISORDERS” (Galapagos NV, priority 2015, published 2018)

Test system: subjects with moderately to severely active RA who have an inadequate response to methotrexate (MTX)
Assay: Study 1 (add-on to MTX) - Aspartate Aminotransferase (AST) levels
Assay type: in vivo, human
Experimental: Double-blind, placebo-controlled add on study in subjects with moderately to severely active RA who have an inadequate response to methotrexate (MTX) (oral or parenteral).
595 subjects randomized to one of 6 dose regimens of Compound 1 (dosed as [Compound 1:HCl:3H2O]) (3 dose levels administered either once or twice daily) or placebo on top of each subject's stable dose of MTX.
Compound 1 (dosed as [Compound 1:HCl:3H2O]) is dosed for twelve weeks once daily (q.d.) (50 mg, 100 mg or 200 mg) or twice daily (b.i.d.) (25 mg, 50 mg or 100 mg); or placebo.
At Week 12, the subjects on placebo who have not achieved 20% improvement in swollen joint count (SJC66) and tender joint count (TJC68) are re-randomized automatically to receive Compound 1 (dosed as a [Compound 1:HCl:3H2O]) either at 100 mg q.d. or 50 mg b.i.d. doses in a blinded fashion; subjects on 50 mg q.d. who have not achieved 20% improvement in SJC66 and TJC68 will be assigned to 100 mg q.d. and subjects on 25 mg b.i.d. that have not achieved a 20% improvement in SJC66 and TJC68 will be assigned to 50 mg b.i.d. Subjects who switch treatment at week 12 are handled as if they discontinued at week 12 for the purpose of statistical analysis, whereas subjects in the other groups will maintain their randomized treatment until Week 24.
AST levels determination is available at Quest Diagnostics, Clinical Trials, Quest House, 125-135 Staines Road, Hounslow, Middlesex, TW3 3JB, United Kingdom under Catalogue n#84450. For Study 3, the data are obtained at BARC Europe, 3B,Industrie Park, Zwijnaarde, B-9052 Ghent, Belgium.
AST catalyzes the transamination of aspartate and 2-oxoglutarate, forming L-glutamate and oxalacetate. The oxalacetate is reduced to L-malate by malate dehydrogenase, whilst NADH is converted to NAD+, measured spectrophotometrically. Guidelines for the AST value have been issued by the association for Clinical Biochemistry and Laboratory Medicine, 130-132 Tooley Street LONDON SE1 2TU, united Kingdom, wherein the AST value should be below 34 U/l in Female and below 45 U/L in male. As disclosed in the respective study protocols for Study 1 or 2, at week 12, depending on the outcome of their treatment, the subjects may be continued in their initial treatment course, or reassigned to another treatment group in a randomized blinded fashion until week 24. Therefore, the number of subjects (N) for the period of either 12 weeks, or 24 weeks is provided to reflect this redistribution at week 12.

[1] = 12 weeks results, 2 × 100 mg b.i.d., week 1
[2] = 12 weeks results, 2 × 100 mg b.i.d., week 2
[3] = 12 weeks results, 2 × 100 mg b.i.d., week 4
[4] = 12 weeks results, 2 × 100 mg b.i.d., week 8
[5] = 12 weeks results, 2 × 100 mg b.i.d., week 12
[6] = 24 weeks results, continued 25 mg b.i.d., week 1
[7] = 24 weeks results, continued 25 mg b.i.d., week 2
[8] = 24 weeks results, continued 25 mg b.i.d., week 4
[9] = 24 weeks results, continued 25 mg b.i.d., week 8
[10] = 24 weeks results, continued 25 mg b.i.d., week 12
[11] = 24 weeks results, continued 25 mg b.i.d., week 16
[12] = 24 weeks results, continued 25 mg b.i.d., week 20
[13] = 24 weeks results, continued 25 mg b.i.d., week 24
[14] = 24 weeks results, continued 50 mg b.i.d., week 1
[15] = 24 weeks results, continued 50 mg b.i.d., week 2
[16] = 24 weeks results, continued 50 mg b.i.d., week 4
[17] = 24 weeks results, continued 50 mg b.i.d., week 8
[18] = 24 weeks results, continued 50 mg b.i.d., week 12
[19] = 24 weeks results, continued 50 mg b.i.d., week 16
[20] = 24 weeks results, continued 50 mg b.i.d., week 20
[21] = 24 weeks results, continued 50 mg b.i.d., week 24
[22] = 24 weeks results, continued 50 mg q.d., week 1
[23] = 24 weeks results, continued 50 mg q.d., week 2
[24] = 24 weeks results, continued 50 mg q.d., week 4
[25] = 24 weeks results, continued 50 mg q.d., week 8

O=C(Nc1nc2cccc(-c3ccc(CN4CCS(=O)(=O)CC4)cc3)n2n1)C1CC1 [Compound 1, cyclopropanecarboxylic acid {5-[4-(1,1-dioxo-thiomorpholin-4-ylmethyl)-phenyl]-[1,2,4]triazolo[1,5-a]pyridin-2-yl}-amide]
Study 1 - AST Mean CFB [1]: 1 IU/L
Study 1 - AST Mean percentage CFB [1]: 10%
Study 1 - AST Mean CFB [2]: 2 IU/L
Study 1 - AST Mean percentage CFB [2]: 14%
Study 1 - AST Mean CFB [3]: 3 IU/L
Study 1 - AST Mean percentage CFB [3]: 19%
Study 1 - AST Mean CFB [4]: 2 IU/L
Study 1 - AST Mean percentage CFB [4]: 17%
Study 1 - AST Mean CFB [5]: 3 IU/L
Study 1 - AST Mean percentage CFB [5]: 20%
Study 1 - AST Mean CFB [6]: 0.7 IU/L
Study 1 - AST Mean percentage CFB [6]: 6.7%
Study 1 - AST Mean CFB [7]: 0.7 IU/L
Study 1 - AST Mean percentage CFB [7]: 7.1%
Study 1 - AST Mean CFB [8]: 1.0 IU/L
Study 1 - AST Mean percentage CFB [8]: 8.6%
Study 1 - AST Mean CFB [9]: 1.6 IU/L
Study 1 - AST Mean percentage CFB [9]: 14.0%
Study 1 - AST Mean CFB [10]: 2.2 IU/L
Study 1 - AST Mean percentage CFB [10]: 16.4%
Study 1 - AST Mean CFB [11]: 1.4 IU/L
Study 1 - AST Mean percentage CFB [11]: 12.6%
Study 1 - AST Mean CFB [12]: 1.1 IU/L
Study 1 - AST Mean percentage CFB [12]: 10.8%
Study 1 - AST Mean CFB [13]: 1.7 IU/L
Study 1 - AST Mean percentage CFB [13]: 14.0%
Study 1 - AST Mean CFB [14]: 0.5 IU/L
Study 1 - AST Mean percentage CFB [14]: 5.7%
Study 1 - AST Mean CFB [15]: 0.4 IU/L
Study 1 - AST Mean percentage CFB [15]: 5.5%
Study 1 - AST Mean CFB [16]: 1.8 IU/L
Study 1 - AST Mean percentage CFB [16]: 14.4%
Study 1 - AST Mean CFB [17]: 1.7 IU/L
Study 1 - AST Mean percentage CFB [17]: 14.0%
Study 1 - AST Mean CFB [18]: 2.4 IU/L
Study 1 - AST Mean percentage CFB [18]: 17.1%
Study 1 - AST Mean CFB [19]: 1.9 IU/L
Study 1 - AST Mean percentage CFB [19]: 13.7%
Study 1 - AST Mean CFB [20]: 3.4 IU/L
Study 1 - AST Mean percentage CFB [20]: 20.7%
Study 1 - AST Mean CFB [21]: 1.5 IU/L
Study 1 - AST Mean percentage CFB [21]: 11.1%
Study 1 - AST Mean CFB [22]: 0.8 IU/L
Study 1 - AST Mean percentage CFB [22]: 7.5%
Study 1 - AST Mean CFB [23]: −0.2 IU/L
Study 1 - AST Mean percentage CFB [23]: 5.7%
Study 1 - AST Mean CFB [24]: −0.4 IU/L
Study 1 - AST Mean percentage CFB [24]: 5.2%
Study 1 - AST Mean CFB [25]: 0.4 IU/L
Study 1 - AST Mean percentage CFB [25]: 9.0%
